Blank lines part the entries; values can stand above or below the molecule they belong to.
How the values were obtained:
[1] = biological target: internalization-mutant sortilin (human) (UniProt Q99523); experiment: immunostaining of cells or tissue; HEK293 cells transiently transfected with sortilin (or empty vector) in 96-well dishes, treated 45 min with 50 nM GSTpro or proNGF, washed, fixed, permeabilised (0.1% Triton X-100), stained for sortilin and for GST or the pro domain; automated array-scanner analysis of sortilin-positive and sortilin-negative cells
wt sortilin = experiment: Competition of proNGF against GSTpro binding to wt sortilin-transfected HEK cells (stained for GST); format: cell-based, human; conditions: 5, 10, or 25 nM GSTpro concomitantly with 50 nM proNGF; Fig. 3v
Experimental: HEK 293 cells were grown in DMEM with 10% fetal bovine serum. They were transfected with plasmids either encoding wild type sortilin, or sortilin with a mutation that renders it endocytosis deficient, or an empty control vector according to manufacturer’s instructions using 20 µg lipofectamine (Thermo Fischer Scientific) with 8 µg DNA on […] per 6 cm, poly-lysine coated dish. The cells were initially plated into 24-well dishes after transfection. That intermediate step rendered more uniform cell numbers in the 96-well dishes that were used to run the actual assay. […]
A-T Immunohistochemistry on HEK 293 cells using Hoechst staining (nuclei); anti-sortilin staining; or staining directed against the pro domain of proNGF (proNGF/GSTpro); or composite image showing all staining concomitantly as indicated above the panels. a–d Cells transfected with an empty expression vector and treated with GSTpro. e–h Cells transfected with a sortilin expression construct, but not treated with GSTpro. i–l Cells transfected with sortilin and GSTpro treated. m–p, Cells transfected with sortilin and proNGF purified from recombinant E.coli. q–t Cells transfected with sortilin and proNGF purified from a eukaryotic expression system. […] Black columns: Total fluorescence intensity of “sortilin-negative” cells. Red columns: Total fluorescence intensity of sortilin positive cells. […]

sortilin [2] = conditions: scintillation proximity assay; ref Andersen et al. [2014]; cited from earlier work
Text: The role of sortilin signaling in several pathologic processes makes it a target for drug development. […] In addition to this assay, other in vitro assays including the binding of ligands to membrane fractions derived from sortilin-expressing cells (Carvelli et al. [2017]), surface plasmon resonance, and l ...

sortilin [3] = biological target: T1, sortilin (Homo sapiens, UniProt Q99523); experiment: Cell-based assay of GSTpro (NGF prodomain) binding/uptake, wt sortilin-transfected HEK293 cells, sortilin/GST double stain, high content imaging, with detergent; conditions: Fig. 6a; with detergent; sortilin-positive cells; preincubation 1 h, GSTpro 45 min
T1 construct: They were transfected with plasmids either encoding wild type sortilin, or sortilin with a mutation that renders it endocytosis deficient; expressed in transfected cells; host or cells: HEK 293 cells, transient transfection (lipofectamine)
T1 sequence (Q99523 78-831): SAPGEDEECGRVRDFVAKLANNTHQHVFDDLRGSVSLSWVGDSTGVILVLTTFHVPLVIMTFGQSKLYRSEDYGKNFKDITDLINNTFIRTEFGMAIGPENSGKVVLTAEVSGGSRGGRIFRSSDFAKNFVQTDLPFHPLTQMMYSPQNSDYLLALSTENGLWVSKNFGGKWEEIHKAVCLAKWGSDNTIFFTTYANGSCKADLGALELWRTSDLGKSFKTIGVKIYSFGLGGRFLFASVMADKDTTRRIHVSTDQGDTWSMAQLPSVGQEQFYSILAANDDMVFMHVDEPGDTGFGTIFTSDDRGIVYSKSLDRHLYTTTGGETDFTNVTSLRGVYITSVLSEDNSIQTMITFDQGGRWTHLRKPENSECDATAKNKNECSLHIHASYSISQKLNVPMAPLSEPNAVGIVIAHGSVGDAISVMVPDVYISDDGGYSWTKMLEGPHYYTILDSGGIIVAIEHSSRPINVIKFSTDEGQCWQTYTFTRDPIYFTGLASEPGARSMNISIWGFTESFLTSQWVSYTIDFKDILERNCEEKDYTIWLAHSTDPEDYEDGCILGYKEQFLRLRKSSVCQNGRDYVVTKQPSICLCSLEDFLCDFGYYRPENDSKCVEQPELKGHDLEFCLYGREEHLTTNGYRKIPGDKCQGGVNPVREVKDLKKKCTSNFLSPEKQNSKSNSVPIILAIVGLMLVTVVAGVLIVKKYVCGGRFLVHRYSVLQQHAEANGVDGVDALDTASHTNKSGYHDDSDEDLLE
Experimental: HEK 293 cells were grown in DMEM with 10% fetal bovine serum. They were transfected with plasmids either encoding wild type sortilin, or sortilin with a mutation that renders it endocytosis deficient, or an empty control vector according to manufacturer’s instructions using 20 µg lipofectamine (Thermo Fischer Scientific) with 8 µg DNA on […] per 6 cm, poly-lysine coated dish. The cells were initially plated into 24-well dishes after transfection. That intermediate step rendered more uniform cell numbers in the 96-well dishes that were used to run the actual assay. 24 h later, cells were split into black opaque-walled, clear-bottom 96 well dishes at 42000 cells in 80 µl medium/well. […] 1 h after that treatment, the medium was replaced with 80 µl medium containing the same antibody, compounds or peptides included in the preincubation medium, plus recombinant GSTpro or proNGF (either purified in-house from recombinant HEK cells or derived from an E.coli expression system at either 0 nM (negative control), or 50 nM, or, in a few instances at 5 or 10 nM. The respective concentrations are indicated in the figures 45 min after adding GSTpro or proNGF, cells were washed twice with prewarmed PBS and fixed in 4% PFA for 20 min at approximately 20 °C.
The fixed cells were washed with PBS for 15 min, followed by two 15 min washes with PBS with 0.1% Triton X-100. […] Wells to be evaluated for blocking of the sortilin-GSTpro interaction by antibodies were only stained with an antibody against the pro domain of proNGF in 10% FBS at a dilution of 1:1500 (Millipore (N-term) clone EPI318Y, Rabbit Monoclonal Antibody Catalog Number: #04-1142). […]
The following day, wells were washed 3 × 15 min with PBS/0.1% Triton X-100. […] Cellular fluorescence was quantified using an array scanner and the “Neuronal Profiler” Bioapplication (Thermo Fisher Scientific) as described below.
Sortilin-GSTpro interaction was also assessed using HEK cell derived cell lines stably expressing sortilin. […]
Images from 96 well dishes were automatically recorded with a Cellomics ArrayScan VTI HCS Reader (Thermo Scientific) using a 10× microscope objective and the build-in standard autofocus method. Fifteen 1024 × 1024 images in 4 channels (Channel 1 and 2: Filter XF5–Hoechst, to detect nuclei and all cells; Channel 3: XF53-Texas Red to detect, e.g., sortilin-positive cells; Channel 4: Filter XF93 – FITC, to detect cells positive, e.g., for the proNGF pro domain) were recorded per 96 well.
The images were analyzed with the Cellomics assay algorithm NeuronalProfiling.V3.5.

proNGF (Homo sapiens) = proNGF (Homo sapiens) (UniProt P01138); conditions: cited from earlier work
Chain of proNGF (Homo sapiens) (P01138 122-241): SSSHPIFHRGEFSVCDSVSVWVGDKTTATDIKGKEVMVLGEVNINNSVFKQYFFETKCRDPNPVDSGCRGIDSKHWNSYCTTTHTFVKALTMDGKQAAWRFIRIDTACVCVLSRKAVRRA

- GSTpro signal compared to wt sortilin transfected cells [1]: 60 % higher
Molecule: GSTpro (GST C-terminally linked to the pro domain from NGF) (from UniProt P01138 19-121) (domain or fragment)

Molecule: proNGF isolated from recombinant E. coli: Recombinant human proNGF expressed and purified from E.coli, purchased from Alamone labs
- competition against GSTpro binding to sortilin (in words) (wt sortilin): compete against GSTpro binding to wt sortilin

Molecule: Cc1cc(=O)oc2c(CN[C@@H](CC(C)C)C(=O)O)c(O)ccc12 [AF40431]
- blocking of sortilin-neurotensin interaction (in words) (sortilin [2]): blocked sortilin-neurotensin interaction

Molecule: euk. proNGF: proNGF isolated from a mammalian expression system
- competition against GSTpro binding to sortilin (in words) (wt sortilin): compete against GSTpro binding to wt sortilin

- reduction of GSTpro signal by neurotensin-derived and control peptides (in words) (sortilin [3]): to a lesser extent also reduced
Molecule: PYIL [reference compound]

Molecule: sortilin (from UniProt Q99523)
- Kd (proNGF (Homo sapiens)): 5 nM

Source: article PMC5882628, “Development of a Cell-Based Assay to Assess Binding of the proNGF Prodomain to Sortilin” (Cellular and Molecular Neurobiology, 2017)
